Measurements: article PMC10820528, “New Rare Triterpene Glycosides from Pacific Sun Star, Solaster pacificus, and Their Anticancer Activity” (Marine Drugs, 2023)
Read-outs that look alike come from different tables or passages of the source.

How the values were obtained:
[1] = system: human embryonic kidney HEK 293 cells; experiment: cells; type: cell-based; settings: for IC50: read-out: IC50, HEK 293
Experimental: (§1) We calculated the inhibiting concentration that cause death of 50% of cells (IC50) and the selectivity index (SI) of the compounds tested (Table 4).
(§2) The human embryonic kidney HEK 293 cells (ATCC® CRL-1573™), breast cancer MDA-MB-231 cells (ATCC® HTB-26™), and colorectal carcinoma HCT 116 cells (ATCC® CCL-247™) were purchased from the American Type Culture Collection (Manassas, VA, USA). The HEK 293 and MDA-MB-231 cells were cultured in DMEM; the HCT 116 cells were cultured in the McCoy’s 5A medium at 37 °C in a humidified atmosphere containing 5% CO2. The culture media were supplemented with 10% heat-inactivated FBS and a 1% penicillin/streptomycin solution. The number of passages was carefully controlled, and contamination by Mycoplasma was monitored on a regular basis.
(§3) Compounds 1–3, and 6–8 were dissolved in sterile dimethyl sulfoxide (DMSO), to prepare stock concentrations of 20 mM. Cells were treated with serially diluted 1–3, 6–8 (0.3–100 µM) (with the culture medium used as diluent) (the final concentration of DMSO was less than 0.5%). The vehicle control was the cells treated with an equivalent volume of DMSO (the final concentration was less than 0.5%) for all of the presented experiments.
(§4) HEK 293 (1.0 × 10^4/200 µL), HCT 116 (1.0 × 10^4/200 µL), and MDA-MB-231 (0.8 × 10^4/200 µL) cells were seeded in a 96-well plate and incubated for 24 h at 37 °C in a CO2 incubator. […] The cells were subsequently incubated with 15 µL of the MTS reagent for 3 h. The absorbance of each well was measured at 490/630 nm on a Power Wave XS microplate reader (BioTek, Winooski, VT, USA).
(§5) The IC50 concentration was calculated using the AAT-Bioquest® online calculator [24]. The selectivity index (SI) was calculated as described previously, using the following formula: SI = IC50 of the compounds for normal cells (HEK 293) divided by IC50 of the same compounds for the human colorectal adenocarcinoma and breast cancer (HCT 116 and MDA-MB-231) cell lines.

[2] = system: breast cancer MDA-MB-231 cells; experiment: cells; type: cell-based; settings: for IC50: read-out: IC50, MDA-MB-231
Experimental: as §1, §2, §3, §4, §5

[3] = system: colorectal carcinoma HCT 116 cells; experiment: cells; type: cell-based; settings: for IC50: Homo sapiens, read-out: IC50, HCT 116
Experimental: We determined the cytotoxicity of compounds 1–3 and 6–8 against human embryonic kidney HEK 293, colorectal carcinoma HCT 116, and breast cancer MDA-MB-231 cells by the MTS assay, after 24 h of treatment with the compounds. We calculated the inhibiting concentration that cause death of 50% of cells (IC50) and the selectivity index (SI) of the compounds tested (Table 4).
as §2, §3, §4, §5

RPMI-7951 cells = settings: non-toxic concentration; cited from earlier work
MDA-MB-231 cells = settings: non-toxic concentration; cited from earlier work
HT-29 cells = settings: non-toxic concentration; cited from earlier work
SK-MEL-2 cancer cells = system: SK-MEL-2 cancer cells; set-up: method as in PMID 35323516; settings: non-toxic concentrations; cited from earlier work
JB6 Cl41 cells = system: JB6 Cl41 cells; set-up: method as in PMID 35323516; settings: induced by chemical carcinogens (EGF and TPA) or ionizing radiation (X-rays and UVB), non-toxic concentrations; cited from earlier work
[4] = MTS assay, cisplatin, 48 h of cell incubation, mean ± SD
[5] = Homo sapiens, HEK293, MTS assay, 24 h of cell incubation, mean ± SD
[6] = Homo sapiens, MDA-MB-231, MTS assay, 24 h of cell incubation, mean ± SD
[7] = HCT-116, MTS assay, 24 h of cell incubation, mean ± SD

N.N.[Cl][Pt][Cl] [Cisplatin, cisplatin, reference compound]
IC50 [1, 4]: 64.6 ± 1.5 µM
IC50 [2, 4]: 34.5 ± 0.5 µM

C=C(C)C1C2CC3(C)C4=CCC5C(C)(C)C(OC6OCC(O)C(O)C6OC6OC(C)C(O)C(O)C6OC6OCC(O)C(O)C6O)CCC5(C)C4CCC13C(=O)O2 [Compound 1, 3β-O-[β-D-xylopyranosyl-(1→2)-β-D-quinovopyranosyl-(1→2)-β-D-xylopyranosyl]-23,24,25,26,27-pentanor-5α-lanosta-7,20(22)-diene-18(16)-lactone]
IC50 [1, 5]: 27 ± 0.3 µM
IC50 [2, 6]: 51.2 ± 0.8 µM
IC50 [3, 7]: 81 ± 3.2 µM

CO[C@@H]1[C@@H](O)[C@H](O[C@@H]2[C@@H](O)[C@H](O[C@H]3[C@H](O)[C@@H](O)[C@H](O[C@H]4[C@H](O[C@H]5CC[C@]6(C)C7=C(CC[C@H]6C5(C)C)[C@]5(C)C[C@H](O)[C@H]([C@@](C)(O)CCC=C(C)C)[C@@]5(CO)CC7)OC[C@@H](O)[C@@H]4O)O[C@@H]3C)O[C@H](CO)[C@H]2O)OC[C@H]1O [Compound 3, (20S)-3β-O-[3-O-methyl-β-D-xylopyranosyl-(1→3)-β-D-glucopyranosyl-(1→4)-β-D-quinovopyranosyl-(1→2)-β-D-xylopyranosyl]-16β,18,20-trihydroxy-5α-lanosta-8(9),24-diene]
cytotoxic activity in words, HEK 293 [1]: Moderate
IC50 [1, 5]: 52.8 ± 0.8 µM
cytotoxic activity in words, MDA-MB-231 [2]: Moderate
IC50 [2, 6]: 36.7 ± 3.3 µM
SI (selectivity index), MDA-MB-231 ([2]; mean IC50 against normal cells (HEK 293)/mean IC50 against MDA-MB-231, 24 h): 1.4
cytotoxic activity in words, HCT 116 [3]: Moderate
IC50 [3, 7]: 42.2 ± 0.4 µM
SI (selectivity index), HCT 116 ([3]; mean IC50 against normal cells (HEK 293)/mean IC50 against HCT 116, 24 h): 1.25

COC1C(O)COC(OC2C(O)C(CO)OC(OC3C(C)OC(OC4C(OC5CCC6(C)C7=C(CCC6C5(C)C)C5(C)CC(OC(C)=O)C6C(C)(C=CC=C(C)C)OC(=O)C65CC7)OCC(O)C4O)C(O)C3O)C2O)C1O [Compound 6, 3β-O-[3-O-methyl-β-D-xylopyranosyl-(1→3)-β-D-glucopyranosyl-(1→4)-β-D-quinovopyranosyl-(1→2)-β-D-xylopyranosyl]-16β-acetoxyholosta-8(9),22E,24-triene]
IC50 [1, 5]: 15.3 ± 1.2 µM
IC50 [2, 6]: 29.8 ± 2.1 µM
IC50 [3, 7]: 25.5 ± 1.4 µM

CC(=O)OC1CC2(C)C3=CCC4C(C)(C)C(OC5OCC(O)C(O)C5OC5OC(C)C(O)C(O)C5OC5OCC(O)C(O)C5O)CCC4(C)C3CCC23C(=O)OC(C)(C=CC=C(C)C)C13 (centres unmarked) [Compound 7, cucumarioside B1]
IC50 ([1]; Homo sapiens, HEK293, 24 h): 28.5 ± 1.5 µM
IC50 ([2]; Homo sapiens, MDA-MB-231, 24 h): 34 ± 2.9 µM
IC50 ([3]; HCT-116, 24 h): 35.6 ± 0.6 µM

COC1C(O)COC(OC2C(O)C(CO)OC(OC3C(C)OC(OC4C(OC5CCC6(C)C7CCC89C(=O)OC(C)(C=CC=C(C)C)C8C(OC(C)=O)CC9(C)C7=CCC6C5(C)C)OCC(O)C4O)C(O)C3O)C2O)C1O (centres unmarked) [Compound 8, cucumarioside A5]
IC50 ([1]; Homo sapiens, HEK293, 24 h): 6.2 ± 0.7 µM
IC50 ([2]; Homo sapiens, MDA-MB-231, 24 h): 13.1 ± 4.2 µM
IC50 ([3]; HCT-116, 24 h): 11.4 ± 2.7 µM

CO[C@@H]1[C@@H](O)[C@H](O[C@@H]2[C@@H](O)[C@H](O[C@H]3[C@H](O)[C@@H](O[C@@H]4OC[C@@H](O)[C@H](O)[C@H]4O)[C@H](O[C@H]4[C@H](O[C@H]5CC[C@]6(C)[C@@H]7CCC89C(=O)O[C@@](C)(/C=C\C=C(C)C)[C@H]8[C@@H](OC(C)=O)C[C@@]9(C)C7=CC[C@H]6C5(C)C)OC[C@@H](O)[C@@H]4O)O[C@@H]3C)O[C@H](CO)[C@H]2O)OC[C@H]1O (some centres unmarked) [cucumarioside C1]
colony formation of RPMI-7951 cells (RPMI-7951 cells): almost completely suppress
colony formation of MDA-MB-231 cells (MDA-MB-231 cells): almost completely suppress
colony formation of HT-29 cells (HT-29 cells): almost completely suppress

COC1C(O)COC(OC2C(O)C(CO)OC(OC3C(C)OC(OC4C(OC5CCC6(C)C7CCC89C(=O)OC(C)(/C=C/C=C(C)C)C8C(OC(C)=O)CC9(C)C7=CCC6C5(C)C)OCC(O)C4O)C(OC4OCC(O)C(O)C4O)C3O)C2O)C1O (centres unmarked) [cucumarioside C2]
colony formation of RPMI-7951 cells (RPMI-7951 cells): almost completely suppress
colony formation of MDA-MB-231 cells (MDA-MB-231 cells): almost completely suppress
colony formation of HT-29 cells (HT-29 cells): almost completely suppress

COC1C(O)C(CO)OC(OC2C(O)C(CO)OC(OC3C(C)OC(OC4C(OC5CCC6(C)C7CCC89C(=O)OC(C)(C=CC=C(C)C)C8C(OC(C)=O)CC9(C)C7=CCC6C5(C)C)OCC(O)C4O)C(OC4OCC(O)C(O)C4O)C3O)C2O)C1O (centres unmarked) [cucumarioside D]
colony formation of SK-MEL-2 cancer cells (SK-MEL-2 cancer cells): highest inhibiting effect
neoplastic transformation of JB6 Cl41 cells (JB6 Cl41 cells): significantly inhibit

CO[C@@H]1[C@@H](O)[C@H](O[C@@H]2[C@@H](O)[C@H](O[C@H]3[C@H](O)[C@@H](O[C@@H]4OC[C@@H](O)[C@H](O)[C@H]4O)[C@H](O[C@H]4[C@H](O[C@H]5CC[C@]6(C)[C@@H]7CCC89C(=O)O[C@@](C)(/C=C/C=C(C)C)[C@H]8[C@@H](OC(C)=O)C[C@@]9(C)C7=CC[C@H]6C5(C)C)OC[C@@H](O)[C@@H]4O)O[C@@H]3C)O[C@H](CO)[C@H]2O)O[C@H](CO)[C@H]1O (some centres unmarked) [pacificusoside D]
colony formation of SK-MEL-2 cancer cells (SK-MEL-2 cancer cells): highest inhibiting effect
neoplastic transformation of JB6 Cl41 cells (JB6 Cl41 cells): significantly inhibit

pacificusoside C
colony formation of RPMI-7951 cells (RPMI-7951 cells): almost completely suppress
colony formation of MDA-MB-231 cells (MDA-MB-231 cells): almost completely suppress
colony formation of HT-29 cells (HT-29 cells): almost completely suppress
